Measurements taken from patent US9820954B2, “Quantitative peri-orbital application of ophthalmology drugs” (JENIVISION INC., priority 2015, dated 2017).
Where “and” joins values, the source holds several entries; their conditions need not be identical. Equal entries are not always repeated.

Tests used:
patient [1] = assay: Periorbital application in a patient with bacterial conjunctivitis (patient example); type: in vivo, human; details: Example VIII: 0.3% w/w cream (Composition 3, Table II), periorbital skin of the right eye daily
Excerpt: A pediatric patient suffers from bacterial conjunctivitis in their right eye.

patient [2] = assay: Periorbital application for ocular pain/inflammation after cataract surgery (patient example); type: in vivo, human; details: Example IX: 0.1% w/v solution (formula 5, table 1) once a day for five days, periorbital skin of both eyes
Excerpt: A person is suffering from ocular/pain inflammation after cataract surgery.

Cynomolgus monkeys [3] = assay: Ocular surface hyperemia assessment (conjunctival congestion) in Cynomolgus monkeys; type: in vivo, Cynomolgus monkey; parameters: key to Conjunctival Congestion, hyperemia score: 0: Normal Appearance; 0.5: Very Slight Redness or Dilation of Conjunctival Vessels; 1: More Obvious Redness or Dilation of Conjunctival Vessels; 2: Whole Conjunctiva Exhibiting Pronounced Red Coloration. Visual Clarification of Individual Conjunctival Vessels Difficult.; 3: Whole Conjunctiva Exhibiting Pronounced Red Coloration. Visual Clarification of Individual Iridial Vessels Impossible. Accompany Conjunctival Edema; details: for Conjunctival Congestion, hyperemia score: left eyes, one value per animal
Experimental: (§1) Day 2 Intraocular pressure was measured in both eyes of the 6 selected animals. Before dosing the monkeys, the delivery of vehicle (Polyethylene glycol 400) and the compound (3-[(3′-fluoro-4-fluorobiphenyl-3-carbonyl) amino] phenoxyacetic acid isopropyl ester from the roller-ball applicator bottle was checked by rolling it along a solid surface (e.g. glass or plastic) until the liquid flowed freely from the roller-ball. The formulation of (3-[(3′-fluoro-4-fluorobiphenyl-3-carbonyl) amino] phenoxyacetic acid isopropyl ester was applied immediately afterwards by rolling the roller-ball slowly around the skin surrounding the left eye socket of each monkey. The roller-ball was rolled around this area 5 times for each monkey. The same drug application procedure was performed for the vehicle (Polyethylene glycol 400) to the right eye socket of each monkey. Intraocular pressure was measured in both eyes at 3 hours post-drug and vehicle application and again at 5 hours post-drug and vehicle application. The conjunctivae of both eyes were checked for redness at the end of the daily experimental period.
(§2) Day 8; Intraocular pressure was measured in both eyes and the conjunctivae were checked for redness/hyperemia.
(§3) Day 15; Intraocular pressure in was measured in both eyes and the conjunctivae were checked for redness/hyperemia.

Cynomolgus monkeys [4] = assay: Intraocular pressure after periorbital roller-ball application in Cynomolgus monkeys; type: in vivo, Cynomolgus monkey; parameters: Ocular Pressure (Left Eye), Mean: unit not given beside the values; details: for Ocular Pressure (Left Eye), Mean: treated left eye, n=6
Experimental: Day 1; 8 Cynomolgus monkeys, which are the favored animal model for glaucoma studies, were assigned to the study. Intraocular pressure was measured in both eyes. The 6 animals with the highest intraocular pressure were selected for study.
as §1
Day 3; Repeat the operation of Day 2.
Day 4; Repeat the operation of Day 2.
Day 5; Repeat the operation of Day 2.
Days 6 and 7, no drug administered.
as §2, §3
This is very unusual as most IOP lowering drugs are administered daily in order to continuously lower IOP.

## O=C(O)c1cn(C2CC2)c2cc(N3CCNCC3)c(F)cc2c1=O [ciprofloxacin]
Patient [1]
  bacterial conjunctivitis: bacterial infection disappears

## C[C@]12C=CC(=O)C=C1CC[C@@H]1[C@@H]2[C@@H](O)C[C@@]2(C)[C@H]1CC[C@]2(O)C(=O)CO [prednisolone]
Patient [2]
  ocular pain and inflammation after cataract surgery: reduces the pain and inflammation

## CC(C)OC(=O)COc1cccc(NC(=O)c2cc(-c3cccc(F)c3)ccc2F)c1 [3-[(3′-fluoro-4-fluorobiphenyl-3-carbonyl)amino] phenoxyacetic acid isopropyl ester]
Cynomolgus monkeys [3]; 150407 (12:00) (Day 2, 3 hr post)
  Conjunctival Congestion, hyperemia score: 0
Cynomolgus monkeys [3]; 150407 (14:00) (Day 2, 5 hr post)
  Conjunctival Congestion, hyperemia score: 0
Cynomolgus monkeys [3]; 150408 (12:00) (Day 3, 3 hr post)
  Conjunctival Congestion, hyperemia score: 0
Cynomolgus monkeys [3]; 150408 (14:00) (Day 3, 5 hr post)
  Conjunctival Congestion, hyperemia score: 0
Cynomolgus monkeys [3]; 150409 (12:00) (Day 4, 3 hr post)
  Conjunctival Congestion, hyperemia score: 0
Cynomolgus monkeys [3]; 150409 (14:00) (Day 4, 5 hr post)
  Conjunctival Congestion, hyperemia score: 0
Cynomolgus monkeys [3]; 150410 (12:00) (Day 5, 3 hr post)
  Conjunctival Congestion, hyperemia score: 0
Cynomolgus monkeys [3]; 150410 (14:00) (Day 5, 5 hr post)
  Conjunctival Congestion, hyperemia score: 0
Cynomolgus monkeys [3]; 150413 (8:00) (Day 8)
  Conjunctival Congestion, hyperemia score: 0.6 and 0 (4×) and 0.5
Cynomolgus monkeys [3]; 150420 (8:00) (Day 15)
  Conjunctival Congestion, hyperemia score: 0
Cynomolgus monkeys [3]; Cynomolgus monkeys, exception: very slight redness on Day 7 in two monkeys
  surface hyperemia (summary of Table IV): almost no surface hyperemia
Cynomolgus monkeys [4]; Cynomolgus monkeys, periorbital application, versus normal baseline
  reductions in intraocular pressure (Table III and FIG. 2): Statistically significant reductions
Cynomolgus monkeys [4]; Day 2-3 hr post, in Polyethylene glycol 400, dosed Days 2-5, baseline Day 1 17.8 / 18.3
  Ocular Pressure (Left Eye), Mean: 18.0
Cynomolgus monkeys [4]; Day 2-5 hr post, baseline Day 1 17.8 / 18.3
  Ocular Pressure (Left Eye), Mean: 17.8
Cynomolgus monkeys [4]; Day 3-3 hr post
  Ocular Pressure (Left Eye), Mean: 12.2
Cynomolgus monkeys [4]; Day 3-5 hr post
  Ocular Pressure (Left Eye), Mean: 12.3
Cynomolgus monkeys [4]; Day 4-3 hr post
  Ocular Pressure (Left Eye), Mean: 10.9
Cynomolgus monkeys [4]; Day 4-5 hr post
  Ocular Pressure (Left Eye), Mean: 10.6
Cynomolgus monkeys [4]; Day 5-3 hr post
  Ocular Pressure (Left Eye), Mean: 8.4
Cynomolgus monkeys [4]; Day 5-5 hr post
  Ocular Pressure (Left Eye), Mean: 9.1
Cynomolgus monkeys [4]; Day 8-8:00am, no drug after Day 5
  Ocular Pressure (Left Eye), Mean: 8.5
Cynomolgus monkeys [4]; Day 15-8:00, no drug after Day 5
  Ocular Pressure (Left Eye), Mean: 17.4
Cynomolgus monkeys [4]; after five doses
  IOP lowering (FIG. 2): long term IOP lowering
Cynomolgus monkeys [4]; periorbital skin, single administration and/or after a series of single administrations
  duration of IOP lowering: 7 to 14 days
